Test system: E. coli W3110
Test: H-89 derivatives rescreen, 50 µM
Format: cell-based
Conditions: Escherichia coli, H-89 derivative rescreen, highest 50 µM
Experimental: From glycerol stocks, E. coli W3110 was cultured on blood agar plates (PB5039A, Thermo Scientific) by overnight (18 ± 2 h) aerobic incubation at 37 °C. A single colony was transferred to tryptic soy broth (TSB, 02-200-500, Scharlab). The cultures were grown to exponential phase (OD600 of 0.5) at 37 °C. The bacterial suspensions were diluted 200-fold in cation-adjusted Mueller–Hinton broth (CAMHB) and 99 µl was added to a library of test compounds (1 µl 10 mM DMSO stock, per well in technical duplicates) in polypropylene 96-well microtitre plates to reach a volume of 100 µl and a final concentration of 100 µM for each test compound and a maximum of 1% DMSO. […] Screening hits were selected from the wells where no visible bacterial growth was observed, as compared with the inoculum controls containing 1% DMSO. The follow-up screen of H-89 derivatives was performed under similar conditions with a final concentration of 50 µM.

| Structure (SMILES) | MIC |
| --- | --- |
| O=C(CCc1ccc(-c2cnc3[nH]ccc3c2)cc1)NCCNS(=O)(=O)c1cccc2cnccc12 [Compound 44] | > 50 µM |
| O=S(=O)(NCCNC/C=C/c1ccc(-c2ccccc2)cc1)c1cccc2ccccc12 [Compound 4] | > 50 µM |
| O=C(CCc1ccc(-c2cnc3[nH]ccc3c2)cc1)NCCNS(=O)(=O)c1cccc(Cl)c1 [Compound 24] | > 50 µM |
| O=C(CCc1ccc(-c2cnc3[nH]ccc3c2)cc1)NCCNS(=O)(=O)c1ccc(F)cc1 [Compound 25] | > 50 µM |
| O=C(CCc1ccc(-c2cnc3[nH]ccc3c2)cc1)NCCNS(=O)(=O)c1cccc([N+](=O)[O-])c1 [Compound 23] | > 50 µM |
| Clc1cnc(N2CCCC2)nc1Nc1n[nH]c2ccccc12 [Compound 26] | > 50 µM |
| O=S(=O)(NCCNC/C=C/c1ccc(-c2ccc3ccccc3c2)cc1)c1cccc2cnccc12 [Compound 3] | > 50 µM |
| O=C(CCC#Cc1cnc2[nH]ccc2c1)NCCNS(=O)(=O)c1cccc2cnccc12 [Compound 21] | > 50 µM |
| CN(C/C=C/c1ccc(-c2cccnc2)cc1)CCNS(=O)(=O)c1cccc2cnccc12 [Compound 9] | > 50 µM |
